Patent US20240408093A1, “HETEROBIFUNCTIONAL COMPOUNDS AND THEIR USE IN TREATING DISEASE” (HALDA THERAPEUTICS OPCO, INC., priority 2022, published 2024)
Where two headings read alike, the source gives them in different places.

Legend:
[1] = test system: HeLa cells (ATCC CCL-2); test: Cellular growth inhibition assay, HeLa cells (Example 16); type: cell-based; conditions: Homo sapiens, 72 hours, CellTiter-Glo 2.0
[2] = test system: HEK293 cells (ATCC CRL-1573); test: Cellular growth inhibition assay, HEK293 cells (Example 16); type: cell-based; conditions: Homo sapiens, 72 hours, CellTiter-Glo 2.0
[3] = test system: GSPT1; test: Payload release assay (DC50 readout), GSPT1 degradation in the presence of recombinant target protein; type: cell-based; conditions: I-series compounds (GSPT1 readout inferred)
Protocol: Exemplary compounds were tested for ability to cause degradation of CCNK or GSPT1 in the presence of recombinant target protein.
HEK293 LgBiT/GSPT1 HiBiT CRISPR Knock-in cells (Promega) were cultured in DMEM (Gibco 11995), supplemented with 10% Heat-inactivated FBS (Gibco A38400-01) and 1% Penicillin/Streptomycin (Gibco 15140-122) and 200 Vg/ml Hygromycin B (Gibco 10-687-010) at 37° C. with 5% CO2 in a humidified tissue culture incubator. HEK293 LgBiT/CCNK HiBiT cells (in-house, described above) were cultured in DMEM (Gibco 11995), supplemented with 10% Heat-inactivated FBS (Gibco A38400-01) and 1% Penicillin/Streptomycin (Gibco 15140-122) 200 Vg/ml Hygromycin B (Gibco 10-687-010), and 1 Vg/ml Puromycin Dihydrochloride (Thermo A1113803) at 37° C. with 5% CO2 in a humidified tissue culture incubator. Cells were seeded (1000 cells/well for HEK293 LgBiT/GSPT1 HiBiT cells or 3000 cells/well for HEK293 LgBiT/CCNK HiBiT cells) 384-well, tissue culture-treated white plates (Perkin Elmer 6007680) in 10 μL media lacking selection for 18-24 hours. Plates were spun at 300 g for 30 seconds and stored in the incubator overnight. After 24 hours, a 5 μL aliquot of recombinant target protein (final concentration of either 5 μM KRAS amino acids 1-169, C51S, C80L, C118S, G12C or 3 μM EGFR amino acids 696-1022 or 3 μM EGFR amino acids 696-1022, T790M, L858R) was added to wells, followed immediately by a 5 μL aliquot of 4× compound-containing medium supplemented with Endurazine Substrate (Promega N2570) was added in each well, at a final top concentration of 10 μM test compound and 0.5× Endurazine, with 4-fold dilutions, using DMSO alone as a negative control. Plates were then spun at 300×g for 3 minutes again and cultured at 37° C. with 5% CO2. After 6 hours the plate was read on Envision MultiMode Plate Reader 2105 (Perkin Elmer) to measure luminescence signal. Data was normalized to DMSO treated cell wells. A four-parameter non-linear regression curve fit was applied to dose-response data in Prism to determine the half maximal growth inhibitory concentration (GI50) of each compound.

[4] = target: KRAS G12C (Homo sapiens, UniProt P01116, G12C); test: KRAS G12C nucleotide exchange assay (SOS1-mediated, HTRF); type: biochemical; set-up: GST-tagged KRAS G12C (amino acids 2-169); conditions: 1 hr pre-incubation
Sequence of KRAS G12C (P01116 2-169 isoform P01116-2 G12C): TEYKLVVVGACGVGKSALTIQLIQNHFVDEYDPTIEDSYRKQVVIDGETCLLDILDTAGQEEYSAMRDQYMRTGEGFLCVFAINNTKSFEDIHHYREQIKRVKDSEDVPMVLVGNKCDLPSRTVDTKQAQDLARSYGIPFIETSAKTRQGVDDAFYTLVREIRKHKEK
Protocol: KRAS target engagement (IC50 determination) was performed using a KRAS G12C nucleotide exchange assay. Specifically, compounds were tested against KRAS G12C in 10-point concentration IC50 mode with 3-fold serial dilution at a starting concentration of 10 μM. ARS1620 was used as a control.
Briefly, GST-tagged KRAS G12C (amino acids 2-169) was mixed with anti-GST Tb antibody (1.5× solution) and 10 μL was delivered to reaction wells. Compounds were delivered using an acoustic dispenser (Echo, Labcyte) and pre-incubated with protein for 1 hr at RT. KRAS/anti-GST Tb Ab/compound mixture was incubated for 1 hour at room temperature. A 3× solution of SOS1 (amino acids 564-1049) and GTP-DY-647P1 (GTP*) was prepared in reaction buffer. A 5 μL aliquot of SOS1/GTP* solution was added to reaction wells to initiate the exchange reaction. No-SOS1 reaction or max compound concentration was used as blank. The final concentrations of KRAS G12C, SOS1, and GTP* were 30 nM, 20 nM, and 0.15 μM, respectively. SOS1 mediated exchange of GDP to GTP-DY-647P was measured using HTRF (Ex/Em=(320-75/665-7.5; 615-8.5)) using an Envision Plate Reader (Perkin Elmer). IC50 determination was performed using a Sigmoidal dose response (variable slope) equation.

[5] = 0 μM recombinant EGFR T790M L858R, read-out: DC50 at 0 μM EGFR T790M L858R
[6] = 0 μM recombinant EGFR WT, read-out: DC50 at 0 μM EGFR WT
[7] = 3 μM recombinant EGFR T790M L858R, read-out: DC50 at 3 μM EGFR T790M L858R
[8] = 3 μM recombinant EGFR WT, read-out: DC50 at 3 μM EGFR WT
[9] = 0 μM recombinant KRAS G12C, read-out: DC50 at 0 μM KRAS G12C
[10] = 5 μM recombinant KRAS G12C, read-out: DC50 at 5 μM KRAS G12C

Compound | GI50 [1] | GI50 [2] | DC50 [3, 5] | DC50 [3, 6] | DC50 [3, 7] | DC50 [3, 8] | IC50 [4] | DC50 [3, 9] | DC50 [3, 10]
C=C(CN(C(=O)NCc1ccc2c(c1)CN(C1CCC(=O)NC1=O)C2=O)c1ccc(C)c(Cl)c1)C(=O)Nc1cc(Nc2ncc(-c3cn(C)c4ccccc34)cn2)c(OC)cc1N(C)CCN(C)C (centres unmarked) [Compound I-42] | 1500 to 10000 nM | 1500 to 10000 nM | 250 to 5000 nM | 5000 to 10000 nM | < 250 nM | < 250 nM |  |  | 
C=C(COc1cc(Cl)cc(NC(=O)NCc2ccc3c(c2)CN(C2CCC(=O)NC2=O)C3=O)c1)C(=O)N[C@@H]1CN(c2nc(Nc3cn(C)nc3OC)c3ncn(C)c3n2)C[C@H]1F (some centres unmarked) [Compound I-45] | 1500 to 10000 nM | < 500 nM | < 250 nM | < 250 nM | < 250 nM | < 250 nM |  |  | 
C=C(COc1ccc(Cl)cc1NC(=O)NCc1ccc2c(c1)CN(C1CCC(=O)NC1=O)C2=O)C(=O)N[C@@H]1CN(c2nc(Nc3cn(C)nc3OC)c3ncn(C)c3n2)C[C@H]1F (some centres unmarked) [Compound I-47] | 500 to 1500 nM | < 500 nM | < 250 nM | < 250 nM | < 250 nM | < 250 nM |  |  | 
C=C(COc1cc(Cl)cc(NC(=O)NCc2ccc3c(c2)CN(C2CCC(=O)NC2=O)C3=O)c1)C(=O)N1C[C@H](COc2nc(Nc3cnn(C)c3)nc3[nH]cc(Cl)c23)[C@@H](OC)C1 (some centres unmarked) [Compound I-54] | 1500 to 10000 nM | 500 to 1500 nM | < 250 nM | < 250 nM | < 250 nM | < 250 nM |  |  | 
C=C(COc1cc(Cl)cc(NC(=O)NCc2ccc3c(c2)CN(C2CCC(=O)NC2=O)C3=O)c1)C(=O)Nc1cccc(Oc2nc(Nc3ccc(N4CCN(C)CC4)cc3)nc3ccsc23)c1 (centres unmarked) [Compound I-55] | 1500 to 10000 nM | 500 to 1500 nM | < 250 nM | < 250 nM | < 250 nM | 250 to 5000 nM |  |  | 
C=C(COc1cc(Cl)cc(NC(=O)NCc2ccc3c(c2)CN(C2CCC(=O)NC2=O)C3=O)c1)C(=O)Nc1cc(Nc2nccc(-c3cn(C)c4ccccc34)n2)c(OC)cc1N(C)CCN(C)C (centres unmarked) [Compound I-59] | 1500 to 10000 nM | < 500 nM | < 250 nM | < 250 nM | < 250 nM | < 250 nM |  |  | 
C=C(COc1c(Cl)cccc1NC(=O)NCc1ccc2c(c1)CN(C1CCC(=O)NC1=O)C2=O)C(=O)Nc1cc(Nc2nccc(-c3cn(C)c4ccccc34)n2)c(OC)cc1N(C)CCN(C)C (centres unmarked) [Compound I-60] | 1500 to 10000 nM | 500 to 1500 nM | 250 to 5000 nM | 250 to 5000 nM | 250 to 5000 nM | 250 to 5000 nM |  |  | 
C=C(COc1cc(Cl)cc(NC(=O)NCc2ccc3c(c2)CN(C2CCC(=O)NC2=O)C3=O)c1)C(=O)Nc1cccc(-c2cccc3cnc(Nc4ccc(N5CCN(CCO)CC5)c(F)c4F)nc23)c1 (centres unmarked) [Compound I-61] | 1500 to 10000 nM | < 500 nM | < 250 nM | < 250 nM | < 250 nM | < 250 nM |  |  | 
C=C(COc1c(Cl)cccc1NC(=O)NCc1ccc2c(c1)CN(C1CCC(=O)NC1=O)C2=O)C(=O)N[C@@H]1CN(c2nc(Nc3cn(C)nc3OC)c3ncn(C)c3n2)C[C@H]1F (some centres unmarked) [Compound I-69] | 500 to 1500 nM | < 500 nM | < 250 nM | < 250 nM | < 250 nM | < 250 nM |  |  | 
C=C(CN(C(=O)NCc1ccc2c(c1)CN(C1CCC(=O)NC1=O)C2=O)c1ccc(C)c(Cl)c1)C(=O)Nc1cccc(Oc2nc(Nc3ccc(N4CCN(C)CC4)cc3)nc3ccsc23)c1 (centres unmarked) [Compound I-70] | > 10000 nM | 1500 to 10000 nM | 250 to 5000 nM | 250 to 5000 nM | 250 to 5000 nM | 250 to 5000 nM |  |  | 
C=C(CN(C(=O)NCc1ccc2c(c1)CN(C1CCC(=O)NC1=O)C2=O)c1ccc(C)c(Cl)c1)C(=O)N1C[C@@H](COc2nc(Nc3cnn(C)c3)nc3[nH]cc(Cl)c23)[C@H](OC)C1 (some centres unmarked) [Compound I-71] | > 10000 nM | 500 to 1500 nM | 250 to 5000 nM | 250 to 5000 nM | 250 to 5000 nM | 250 to 5000 nM |  |  | 
C=C(COC(=O)NCCc1ccc(Cl)cc1NC(=O)NCc1ccc2c(c1)CN(C1CCC(=O)NC1=O)C2=O)C(=O)N1CCN(c2nc(OC[C@@H]3CCCN3C)nc3c2CCN(c2cccc4cccc(Cl)c24)C3)C[C@@H]1CC#N (some centres unmarked) [Compound I-78] |  | > 10000 nM |  |  |  |  | < 100 nM | > 10000 nM | > 10000 nM
C=C(COC(=O)NCCCc1ccc(Cl)cc1NC(=O)NCc1ccc2c(c1)CN(C1CCC(=O)NC1=O)C2=O)C(=O)N1CCN(c2nc(OC[C@@H]3CCCN3C)nc3c2CCN(c2cccc4cccc(Cl)c24)C3)C[C@@H]1CC#N (some centres unmarked) [Compound I-79] |  | > 10000 nM |  |  |  |  | < 100 nM | 250 to 5000 nM | > 10000 nM
C=C(COc1ccccc1NC(=O)NCc1ccc2c(c1)CN(C1CCC(=O)NC1=O)C2=O)C(=O)N1CCN(c2nc(OC[C@H]3CCCN3C)nc3c2CCN(c2cccc4cccc(Cl)c24)C3)C[C@H]1CC#N (some centres unmarked) [Compound I-80] |  | > 10000 nM |  |  |  |  | < 100 nM | 250 to 5000 nM | < 250 nM
C=C(CN1C(=O)CCC(N2Cc3cc(CNC(=O)Nc4ccc(C)c(Cl)c4)ccc3C2=O)C1=O)C(=O)Nc1cc(Nc2ncc(-c3cn(C)c4ccccc34)cn2)c(OC)cc1N(C)CCN(C)C (centres unmarked) [Compound I-87] | < 500 nM | < 500 nM | < 250 nM | < 250 nM |  |  |  |  | 
C=C(COC(=O)n1c(CNc2nc(N3CCNCC3)nc3c(Br)cnn23)nc2cc(C)ccc21)C(=O)N1C[C@H](COc2nc(Nc3cnn(C)c3)nc3[nH]cc(Cl)c23)[C@@H](OC)C1 [Compound V-4] | 500 to 1500 nM | < 500 nM |  |  |  |  |  |  | 
C=C(COc1cc(-c2ccccn2)ccc1CNc1nc(N[C@H](CC)CO)nc2c1ncn2C(C)C)C(=O)N[C@@H]1CN(c2nc(Nc3cn(C)nc3OC)c3ncn(C)c3n2)C[C@H]1F [II-183] | < 500 nM | < 500 nM |  |  |  |  |  |  | 
C=C(COC(=O)N1CCN(c2nc(NCc3nc4cc(C)ccc4[nH]3)n3ncc(Br)c3n2)CC1)C(=O)N1C[C@H](COc2nc(Nc3cnn(C)c3)nc3[nH]cc(Cl)c23)[C@@H](OC)C1 [II-185] | 500 to 1500 nM | < 500 nM |  |  |  |  |  |  | 
C=C(COc1cc(-c2ccccn2)ccc1CNc1nc(N[C@H](CC)CO)nc2c1ncn2C(C)C)C(=O)N1CCN(c2nc(OC[C@@H]3CCCN3C)nc3c2CCN(c2cccc4cccc(Cl)c24)C3)C[C@@H]1CC#N [II-186] | 1500 to 10000 nM | 500 to 1500 nM |  |  |  |  | < 100 nM |  | 
C=C(CN1CCN(c2nc(NCc3nc4cc(C)ccc4[nH]3)n3ncc(Br)c3n2)CC1)C(=O)Nc1cc(Nc2nccc(-c3cn(C)c4ccccc34)n2)c(OC)cc1N(C)CCN(C)C [II-188] | < 500 nM | < 500 nM |  |  |  |  |  |  | 
C=C(CN1CCN(c2nc(NCc3nc4cc(C)ccc4[nH]3)n3ncc(Br)c3n2)CC1)C(=O)Nc1cccc(-c2cccc3cnc(Nc4ccc(N5CCN(CCO)CC5)c(F)c4F)nc23)c1 [II-191] | < 500 nM | < 500 nM |  |  |  |  |  |  | 
